# Patent US8412459B2, “Method for determining the allergic potential of a compound” (Vlaamse Instelling Voor Technologisch Onderzoek (VITO), priority 2006, dated 2013)
# Tests used:
# CD34-DCs = assay: RT-PCR gene expression in CD34-DCs; classification model (lda + quadratic discriminant) on NINJ, PBEF1, CCR7, CREM, leave-one-compound-out cross validation; settings: LFC of NINJ, exposure 6, 12 and 24 h at concentration of EC20, on average 3 individuals, test compound left out of training
# Description: Expression of every gene was measured after exposure to each of the 9 different compounds (control solvent). For each compound on average 3 different unrelated individuals were used for exposure. On average sample from 3 different individuals were used per compound. Each exposure consisted of 3 exposure times (6, 12 and 24 hours) and three different concentrations were used for each exposure experiment.
# To quantify the separation of the two groups one can use e.g. a linear discriminant analysis (lda). This method determines the direction(s) in space (in our case one direction in a 3D space) in which the discrimination between the groups is maximal. […] Mathematically, this projection is a linear combination of the LFC at 6, 12 and 24 hours; this linear combination of LFC's will be called the feature value. On this feature data per gene an F-test can be performed to assess the significance (p-value) of the separation.
# One can now set a threshold and only retain those genes with a p-value below it.
# To this end the lda was again used to find the two dimensional subspace in which the separation between the two groups is optimal. The variables on the two axes of this space are now a linear combination of the four feature values of the four genes. We will call the x- and y-variable respectively feature value 1 and 2. Note that these feature values are trained by the data.
# For this quadratic model, the decision boundary separating the two groups is a conic section, in this case an ellipse.
# First one chooses one of the 9 compounds and removes the corresponding measurements from the dataset.
# Next one repeats the lda optimization and the construction of a quadratic discriminant model as described in the previous step.
# Next the data of the removed compound are fed into the classification model and used to predict the class to which the compound belongs.
# [1] = a priori known, from literature / in vivo tests; cited from earlier work
Compound,class predicted by the classification model in cross validation (sensitizer / non-sensitizer) (CD34-DCs),known sensitizing classification / strength [1]
"C[S+](C)[O-] [DMSO, dimethylsulfoxide]",non-sensitizers,
"O=[N+]([O-])c1ccc(Cl)c([N+](=O)[O-])c1 [DNCB, 1-chloro-2,4-dinitrobenzene]",,strong sensitizer
"C=CCc1ccc(O)c(OC)c1 [Eugenol, 2-Methoxy-4-(2-propenyl)phenol]",,weak sensitizing capacity
"CCC[CH2][Sn]([Cl])([CH2]CCC)[CH2]CCC [TBT, Tributyltin chloride]",non-sensitizers,
tritonX-100,non-sensitizers,
